# From the kinase profiling compilation of Christmann-Franck et al. (2016)
# Assays:
# Assay in all cases: KINOMEscan competition binding
# Conditions in all cases: compound 10.0 µM
# ABL2 (human) = ABL2 (human) (UniProt P42684)
# ACVR2B (human) = ACVR2B (human) (UniProt Q13705)
# AXL (human) = AXL (human) (UniProt P30530)
# BTK (human) = BTK (human) (UniProt Q06187)
# CDK14 (human) = CDK14 (human) (UniProt O94921)
# CDK7 (human) = CDK7 (human) (UniProt P50613)
# CDKL3 (human) = CDKL3 (human) (UniProt Q8IVW4)
# CLK3 (human) = CLK3 (human) (UniProt P49761)
# CaMK1 (human) = CaMK1 (human) (UniProt Q14012)
# DCLK3 (human) = DCLK3 (human) (UniProt Q9C098)
# DYRK2 (human) = DYRK2 (human) (UniProt Q92630)
# EPHA8 (human) = EPHA8 (human) (UniProt P29322)
# EPHB1 (human) = EPHB1 (human) (UniProt P54762)
# ERBB2 (human) = ERBB2 (human) (UniProt P04626)
# ERBB4 (human) = ERBB4 (human) (UniProt Q15303)
# GAK (human) = GAK (human) (UniProt O14976)
# GSK3B (human) = GSK3B (human) (UniProt P49841)
# HIPK3 (human) = HIPK3 (human) (UniProt Q9H422)
# HUNK (human) = HUNK (human) (UniProt P57058)
# IGF1R (human) = IGF1R (human) (UniProt P08069)
# INSRR (human) = INSRR (human) (UniProt P14616)
# MAP2K1 (human) = MAP2K1 (human) (UniProt Q02750)
# MAP2K6 (human) = MAP2K6 (human) (UniProt P52564)
# MAP3K3 (human) = MAP3K3 (human) (UniProt Q99759)
# MTOR (human) = MTOR (human) (UniProt P42345)
# NEK6 (human) = NEK6 (human) (UniProt Q9HC98)
# NTRK3 (human) = NTRK3 (human) (UniProt Q16288)
# PAK2 (human) = PAK2 (human) (UniProt Q13177)
# PAK6 (human) = PAK6 (human) (UniProt Q9NQU5)
# PI4KB (human) = PI4KB (human) (UniProt Q9UBF8)
# PRKD1 (human) = PRKD1 (human) (UniProt Q15139)
# [1] = tested on: RET (human), P07949 [V804M]
# RPS6KA1 KD1 (human) = RPS6KA1 KD1 (human) (UniProt Q15418)
# RPS6KB1 (human) = RPS6KB1 (human) (UniProt P23443)
# SBK1 (human) = SBK1 (human) (UniProt Q52WX2)
# STK17B (human) = STK17B (human) (UniProt O94768)
# STK35 (human) = STK35 (human) (UniProt Q8TDR2)
# SYK (human) = SYK (human) (UniProt P43405)
# TEK (human) = TEK (human) (UniProt Q02763)
# TESK1 (human) = TESK1 (human) (UniProt Q15569)
# TLK1 (human) = TLK1 (human) (UniProt Q9UKI8)
# Chain of CLK3 (human) (P49761 whole entry, looked up): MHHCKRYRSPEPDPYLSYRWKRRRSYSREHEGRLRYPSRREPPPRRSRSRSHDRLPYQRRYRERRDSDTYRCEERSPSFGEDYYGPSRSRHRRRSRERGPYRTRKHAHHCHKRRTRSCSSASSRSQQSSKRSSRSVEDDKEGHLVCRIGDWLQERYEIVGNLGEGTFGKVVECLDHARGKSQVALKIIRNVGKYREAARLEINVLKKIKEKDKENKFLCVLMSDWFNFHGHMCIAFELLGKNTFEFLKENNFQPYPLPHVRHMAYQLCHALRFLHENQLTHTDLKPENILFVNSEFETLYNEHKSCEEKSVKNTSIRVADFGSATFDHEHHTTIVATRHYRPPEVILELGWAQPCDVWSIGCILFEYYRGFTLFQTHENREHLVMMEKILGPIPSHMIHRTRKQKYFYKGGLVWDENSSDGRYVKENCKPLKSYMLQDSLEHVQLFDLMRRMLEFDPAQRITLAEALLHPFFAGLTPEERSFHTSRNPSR
# Chain of HIPK3 (human) (Q9H422 whole entry, looked up): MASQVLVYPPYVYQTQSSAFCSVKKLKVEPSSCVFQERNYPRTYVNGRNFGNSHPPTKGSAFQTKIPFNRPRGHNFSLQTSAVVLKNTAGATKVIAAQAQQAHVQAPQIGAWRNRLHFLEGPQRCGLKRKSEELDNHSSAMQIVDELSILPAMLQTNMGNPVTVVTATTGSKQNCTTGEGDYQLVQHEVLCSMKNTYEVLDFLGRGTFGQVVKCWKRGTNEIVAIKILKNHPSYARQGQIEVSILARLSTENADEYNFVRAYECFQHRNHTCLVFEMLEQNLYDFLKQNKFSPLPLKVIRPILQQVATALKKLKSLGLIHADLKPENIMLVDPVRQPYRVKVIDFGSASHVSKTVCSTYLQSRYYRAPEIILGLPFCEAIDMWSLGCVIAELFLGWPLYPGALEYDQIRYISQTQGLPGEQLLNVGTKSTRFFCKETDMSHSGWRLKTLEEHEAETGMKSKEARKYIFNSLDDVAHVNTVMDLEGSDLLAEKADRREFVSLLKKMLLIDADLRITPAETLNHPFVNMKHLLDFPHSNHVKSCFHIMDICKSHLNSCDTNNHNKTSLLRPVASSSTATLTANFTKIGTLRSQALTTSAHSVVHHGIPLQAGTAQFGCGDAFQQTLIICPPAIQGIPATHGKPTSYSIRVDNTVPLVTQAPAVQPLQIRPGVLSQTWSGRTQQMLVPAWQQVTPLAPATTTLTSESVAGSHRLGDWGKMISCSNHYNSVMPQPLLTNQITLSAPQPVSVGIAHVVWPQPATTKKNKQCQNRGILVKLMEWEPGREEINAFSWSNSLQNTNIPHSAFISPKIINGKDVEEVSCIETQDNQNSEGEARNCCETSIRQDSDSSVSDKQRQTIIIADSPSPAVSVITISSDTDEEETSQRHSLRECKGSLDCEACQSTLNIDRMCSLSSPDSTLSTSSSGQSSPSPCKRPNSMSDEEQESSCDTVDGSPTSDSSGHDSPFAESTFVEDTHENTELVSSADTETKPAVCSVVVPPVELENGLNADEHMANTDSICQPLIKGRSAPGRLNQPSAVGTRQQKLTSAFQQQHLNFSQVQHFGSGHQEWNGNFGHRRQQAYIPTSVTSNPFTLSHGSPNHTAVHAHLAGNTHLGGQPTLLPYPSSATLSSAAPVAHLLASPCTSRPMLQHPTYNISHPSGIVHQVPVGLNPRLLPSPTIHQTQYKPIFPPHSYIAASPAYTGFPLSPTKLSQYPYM
# Chain of CaMK1 (human) (Q14012 whole entry, looked up): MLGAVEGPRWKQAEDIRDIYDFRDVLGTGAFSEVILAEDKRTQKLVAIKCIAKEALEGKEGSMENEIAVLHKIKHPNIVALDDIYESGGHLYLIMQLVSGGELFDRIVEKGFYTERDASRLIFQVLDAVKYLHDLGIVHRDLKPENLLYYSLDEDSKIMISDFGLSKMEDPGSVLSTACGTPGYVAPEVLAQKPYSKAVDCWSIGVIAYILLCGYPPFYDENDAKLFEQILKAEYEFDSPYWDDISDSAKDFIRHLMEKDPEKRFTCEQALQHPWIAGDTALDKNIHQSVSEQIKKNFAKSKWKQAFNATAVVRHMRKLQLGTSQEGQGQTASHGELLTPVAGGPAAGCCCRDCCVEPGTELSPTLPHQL
# Chain of TEK (human) (Q02763 whole entry, looked up): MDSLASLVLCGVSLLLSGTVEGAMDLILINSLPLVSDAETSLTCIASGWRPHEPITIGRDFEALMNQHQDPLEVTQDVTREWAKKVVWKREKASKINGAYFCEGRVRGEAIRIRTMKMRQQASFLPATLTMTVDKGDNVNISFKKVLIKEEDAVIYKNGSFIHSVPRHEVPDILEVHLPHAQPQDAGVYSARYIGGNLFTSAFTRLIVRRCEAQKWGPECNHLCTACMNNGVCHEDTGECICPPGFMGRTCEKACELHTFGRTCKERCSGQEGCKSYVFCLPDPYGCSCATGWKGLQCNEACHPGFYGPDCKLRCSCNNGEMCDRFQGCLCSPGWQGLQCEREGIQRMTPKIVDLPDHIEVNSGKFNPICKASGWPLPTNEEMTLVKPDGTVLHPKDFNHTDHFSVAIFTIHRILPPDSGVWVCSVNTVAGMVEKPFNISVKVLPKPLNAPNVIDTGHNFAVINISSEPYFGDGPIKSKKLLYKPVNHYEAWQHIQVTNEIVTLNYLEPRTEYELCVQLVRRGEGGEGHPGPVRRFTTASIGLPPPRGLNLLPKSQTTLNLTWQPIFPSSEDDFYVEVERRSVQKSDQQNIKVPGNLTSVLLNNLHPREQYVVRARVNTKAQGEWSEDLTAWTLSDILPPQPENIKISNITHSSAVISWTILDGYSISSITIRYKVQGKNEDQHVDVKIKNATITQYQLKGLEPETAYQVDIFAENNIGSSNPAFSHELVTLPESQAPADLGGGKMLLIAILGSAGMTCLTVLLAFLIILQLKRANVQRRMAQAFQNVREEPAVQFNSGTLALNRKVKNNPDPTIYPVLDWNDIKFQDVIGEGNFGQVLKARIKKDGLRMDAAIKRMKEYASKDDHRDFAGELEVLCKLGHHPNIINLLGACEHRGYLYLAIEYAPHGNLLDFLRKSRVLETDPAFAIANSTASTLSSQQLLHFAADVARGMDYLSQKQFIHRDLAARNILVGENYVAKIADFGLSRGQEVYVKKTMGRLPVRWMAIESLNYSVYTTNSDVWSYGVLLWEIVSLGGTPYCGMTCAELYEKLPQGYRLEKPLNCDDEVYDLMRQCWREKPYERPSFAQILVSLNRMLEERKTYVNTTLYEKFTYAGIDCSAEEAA
# Chain of TESK1 (human) (Q15569 whole entry, looked up): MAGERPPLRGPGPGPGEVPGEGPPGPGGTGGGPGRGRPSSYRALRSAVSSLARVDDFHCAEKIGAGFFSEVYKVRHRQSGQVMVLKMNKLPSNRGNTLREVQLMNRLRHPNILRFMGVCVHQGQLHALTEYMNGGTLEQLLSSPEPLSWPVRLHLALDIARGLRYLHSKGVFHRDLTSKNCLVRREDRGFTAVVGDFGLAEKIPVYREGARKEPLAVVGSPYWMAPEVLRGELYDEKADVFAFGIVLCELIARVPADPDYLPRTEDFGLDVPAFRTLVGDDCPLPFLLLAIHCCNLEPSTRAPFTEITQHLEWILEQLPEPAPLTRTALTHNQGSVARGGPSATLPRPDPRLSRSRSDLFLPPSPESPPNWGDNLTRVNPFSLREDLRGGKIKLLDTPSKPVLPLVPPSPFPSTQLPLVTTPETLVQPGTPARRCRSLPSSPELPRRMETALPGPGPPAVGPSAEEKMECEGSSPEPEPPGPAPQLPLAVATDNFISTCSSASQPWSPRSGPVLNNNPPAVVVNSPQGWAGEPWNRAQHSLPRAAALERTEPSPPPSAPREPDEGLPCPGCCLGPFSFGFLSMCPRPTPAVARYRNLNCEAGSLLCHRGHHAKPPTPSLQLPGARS
# Chain of PAK6 (human) (Q9NQU5 whole entry, looked up): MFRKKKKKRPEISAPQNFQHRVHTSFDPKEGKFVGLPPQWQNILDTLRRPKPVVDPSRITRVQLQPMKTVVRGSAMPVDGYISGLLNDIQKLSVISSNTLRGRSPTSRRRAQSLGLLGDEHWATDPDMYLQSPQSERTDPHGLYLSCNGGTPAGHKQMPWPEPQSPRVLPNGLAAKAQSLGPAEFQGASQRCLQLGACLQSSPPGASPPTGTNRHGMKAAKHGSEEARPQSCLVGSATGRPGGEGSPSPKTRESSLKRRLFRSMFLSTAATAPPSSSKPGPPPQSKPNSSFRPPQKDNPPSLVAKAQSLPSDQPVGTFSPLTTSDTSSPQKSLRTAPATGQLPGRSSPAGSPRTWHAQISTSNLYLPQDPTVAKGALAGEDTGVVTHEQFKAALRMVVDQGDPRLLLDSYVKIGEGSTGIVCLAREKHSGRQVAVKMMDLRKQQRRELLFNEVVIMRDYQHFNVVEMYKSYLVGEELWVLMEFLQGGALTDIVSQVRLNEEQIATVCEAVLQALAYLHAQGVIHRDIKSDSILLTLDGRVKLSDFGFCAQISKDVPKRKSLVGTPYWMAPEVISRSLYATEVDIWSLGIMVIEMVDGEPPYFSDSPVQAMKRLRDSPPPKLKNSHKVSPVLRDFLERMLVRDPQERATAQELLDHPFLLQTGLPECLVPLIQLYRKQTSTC
# Chain of SBK1 (human) (Q52WX2 whole entry, looked up): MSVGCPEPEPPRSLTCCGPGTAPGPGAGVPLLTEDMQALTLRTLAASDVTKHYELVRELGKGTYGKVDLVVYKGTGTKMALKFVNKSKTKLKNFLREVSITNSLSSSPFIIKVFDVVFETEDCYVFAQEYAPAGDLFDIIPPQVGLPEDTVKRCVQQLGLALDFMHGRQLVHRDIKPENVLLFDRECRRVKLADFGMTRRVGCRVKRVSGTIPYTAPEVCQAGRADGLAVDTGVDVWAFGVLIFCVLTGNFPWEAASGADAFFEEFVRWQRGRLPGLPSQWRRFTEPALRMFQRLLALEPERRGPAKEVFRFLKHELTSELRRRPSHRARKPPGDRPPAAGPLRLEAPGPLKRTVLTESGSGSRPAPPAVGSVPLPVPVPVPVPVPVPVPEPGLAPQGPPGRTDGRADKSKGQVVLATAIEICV
smiles,measurement,setting,value
COc1cc2ncnc(-n3nc(-c4ccccn4)nc3N)c2cc1OC,"kinase still bound, per cent of control",ABL2 (human),33%
same,"kinase still bound, per cent of control",ACVR2B (human),49%
same,"kinase still bound, per cent of control",AXL (human),6%
same,"kinase still bound, per cent of control",BTK (human),51%
same,"kinase still bound, per cent of control",CDK14 (human),62%
same,"kinase still bound, per cent of control",CDK7 (human),5.4%
same,"kinase still bound, per cent of control",CDKL3 (human),5.3%
same,"kinase still bound, per cent of control",CLK3 (human),3.6%
same,"kinase still bound, per cent of control",CaMK1 (human),31%
same,"kinase still bound, per cent of control",DCLK3 (human),100%
same,"kinase still bound, per cent of control",DYRK2 (human),0.25%
same,"kinase still bound, per cent of control",EPHA8 (human),59%
same,"kinase still bound, per cent of control",EPHB1 (human),32%
same,"kinase still bound, per cent of control",ERBB2 (human),93%
same,"kinase still bound, per cent of control",ERBB4 (human),59%
same,"kinase still bound, per cent of control",GAK (human),2.6%
same,"kinase still bound, per cent of control",GSK3B (human),100%
same,"kinase still bound, per cent of control",HIPK3 (human),0%
same,"kinase still bound, per cent of control",HUNK (human),41%
same,"kinase still bound, per cent of control",IGF1R (human),100%
same,"kinase still bound, per cent of control",INSRR (human),100%
same,"kinase still bound, per cent of control",MAP2K1 (human),64%
same,"kinase still bound, per cent of control",MAP2K6 (human),46%
same,"kinase still bound, per cent of control",MAP3K3 (human),48%
same,"kinase still bound, per cent of control",MTOR (human),5%
same,"kinase still bound, per cent of control",NEK6 (human),0.15%
same,"kinase still bound, per cent of control",NTRK3 (human),100%
same,"kinase still bound, per cent of control",PAK2 (human),37%
same,"kinase still bound, per cent of control",PAK6 (human),55%
same,"kinase still bound, per cent of control",PI4KB (human),9.8%
same,"kinase still bound, per cent of control",PRKD1 (human),88%
same,"kinase still bound, per cent of control",[1],66%
same,"kinase still bound, per cent of control",RPS6KA1 KD1 (human),33%
same,"kinase still bound, per cent of control",RPS6KB1 (human),2.6%
same,"kinase still bound, per cent of control",SBK1 (human),100%
same,"kinase still bound, per cent of control",STK17B (human),9.4%
same,"kinase still bound, per cent of control",STK35 (human),24%
same,"kinase still bound, per cent of control",SYK (human),24%
same,"kinase still bound, per cent of control",TEK (human),45%
same,"kinase still bound, per cent of control",TESK1 (human),100%
same,"kinase still bound, per cent of control",TLK1 (human),46%
COc1cc(C(=O)N2CCC(N3CCN(C)CC3)CC2)ccc1Nc1ncc2c(n1)N(C)c1ccccc1C(=O)N2C,"kinase still bound, per cent of control",ABL2 (human),97%
same,"kinase still bound, per cent of control",ACVR2B (human),100%
same,"kinase still bound, per cent of control",AXL (human),100%
same,"kinase still bound, per cent of control",BTK (human),100%
same,"kinase still bound, per cent of control",CDK14 (human),81%
same,"kinase still bound, per cent of control",CDK7 (human),86%
same,"kinase still bound, per cent of control",CDKL3 (human),83%
same,"kinase still bound, per cent of control",CLK3 (human),95%
same,"kinase still bound, per cent of control",CaMK1 (human),55%
same,"kinase still bound, per cent of control",DCLK3 (human),90%
same,"kinase still bound, per cent of control",DYRK2 (human),76%
same,"kinase still bound, per cent of control",EPHA8 (human),80%
same,"kinase still bound, per cent of control",EPHB1 (human),98%
same,"kinase still bound, per cent of control",ERBB2 (human),100%
same,"kinase still bound, per cent of control",ERBB4 (human),100%
same,"kinase still bound, per cent of control",GAK (human),16%
same,"kinase still bound, per cent of control",GSK3B (human),88%
same,"kinase still bound, per cent of control",HIPK3 (human),89%
same,"kinase still bound, per cent of control",HUNK (human),100%
same,"kinase still bound, per cent of control",IGF1R (human),96%
same,"kinase still bound, per cent of control",INSRR (human),97%
same,"kinase still bound, per cent of control",MAP2K1 (human),100%
same,"kinase still bound, per cent of control",MAP2K6 (human),83%
same,"kinase still bound, per cent of control",MAP3K3 (human),97%
same,"kinase still bound, per cent of control",MTOR (human),97%
same,"kinase still bound, per cent of control",NEK6 (human),76%
same,"kinase still bound, per cent of control",NTRK3 (human),100%
same,"kinase still bound, per cent of control",PAK2 (human),65%
same,"kinase still bound, per cent of control",PAK6 (human),98%
same,"kinase still bound, per cent of control",PI4KB (human),95%
same,"kinase still bound, per cent of control",PRKD1 (human),28%
same,"kinase still bound, per cent of control",[1],80%
same,"kinase still bound, per cent of control",RPS6KA1 KD1 (human),73%
same,"kinase still bound, per cent of control",RPS6KB1 (human),100%
same,"kinase still bound, per cent of control",SBK1 (human),100%
same,"kinase still bound, per cent of control",STK17B (human),93%
same,"kinase still bound, per cent of control",STK35 (human),100%
same,"kinase still bound, per cent of control",SYK (human),100%
same,"kinase still bound, per cent of control",TEK (human),100%
same,"kinase still bound, per cent of control",TESK1 (human),82%
same,"kinase still bound, per cent of control",TLK1 (human),100%
